From patent US10174013B2, “Benzimidazole derivatives as kinase inhibitors” (SELVITA S.A., priority 2012, dated 2019)
Where a name gives a salt, the structure may show the parent alone. Read-outs that look alike come from different tables or passages of the source.

Legend:
DYRK1 = DYRK1 (Homo sapiens (Human), UniProt Q13627); experiment: ADP-Glo Kinase Assay, DYRK1; type: biochemical; conditions: 1 μM compound; for inhibition at 1 µM: read-out: DYRK1A % INH (1 μM)
Method: (§1) Compounds of the present invention were tested for their inhibitory activity against Pim-1, Pim-2, Pim-3, Flt3 wt, Flt3 ITD, CDK2/E and DYRK1. The testing of the compounds was carried out using the ADP-Glo™ Kinase Assay from Promega Corporation (Madison, Wis., USA).
(§2) The ADP-Glo™ Kinase Assay is a luminescent ADP detection assay to measure kinase activity by quantifying the amount of ADP produced during a kinase reaction. The kinase assay is performed in kinase assay buffer (5 mM MOPS, pH 7.5, 5 mM MgCl2, 0.4 mM EDTA, 1.5 mM DTT). Test samples initially dissolved in DMSO at 10 mM were diluted with the assay buffer to 1000 nM. A 30 μL volume/well of a mixture of substrates containing ATP (final ATP concentration in each kinase assay was equal to its apparent ATP Km).
(§3) The assay was performed in two steps: first, after the kinase reaction, an equal volume of ADP-Glo™ Reagent was added to terminate the kinase reaction and deplete the remaining ATP. Second, the Kinase Detection Reagent was added to simultaneously convert ADP to ATP and allowed the newly synthesized ATP to be measured using a luciferase/luciferin reaction. The luminescent signal generated was proportional to the ADP concentration produced and was correlated with kinase activity. A microplate spectrophotometer (Synergy 2 multi-mode microplate reader [BioTek]) was used for detecting the luminescence. The data was normalized and the percent of inhibition was obtained according to the following equation: […]

CDK2/E = CDK2/E (Homo sapiens (Human), UniProt P24941); experiment: ADP-Glo Kinase Assay, CDK2/E; type: biochemical; conditions: 1 μM compound; for inhibition at 1 µM: read-out: CDK2/E % INH (1 μM)
Method: as §1, §2, §3

FLT3wt = FLT3wt (Homo sapiens (Human), UniProt P36888); experiment: ADP-Glo Kinase Assay, Flt3 wt; type: biochemical; conditions: 1 μM compound; for inhibition at 1 µM: read-out: Flt3wt % INH (1 μM)
Method: as §1, §2, §3

Pim-3 = Pim-3 (Homo sapiens (Human), UniProt Q86V86); experiment: ADP-Glo Kinase Assay, Pim-3; type: biochemical; conditions: 1 μM compound; for inhibition at 1 µM: read-out: Pim-3 % INH (1 μM)
Method: as §1, §2, §3

MV4-11 cells = experiment: Growth inhibition, MTS assay, MV4-11; type: cell-based, Human; conditions: MTS cell viability, read-out: MV4-11 ED50
Description: (§4) The following cell lines, were obtained and used in tests as outlined below: • Human myelomonocytic, biphenotypic leukemia MV4-11 cells (harboring a Flt3-ITD mutation); • Human Acute Myeloid Leukemia MOLM16 cells; • Human Acute Myeloid Leukemia MOLM13 cells (harboring a Flt3-ITD mutation); • Human Myeloid Leukemia KG-1 cells; • Human erythroleukemia HEL92 cells; • Human mantle cell lymphoma Jeko-1 cells; • Human hepatocellular carcinoma HepG2 cells; and • Human colon adenocarcinoma SW-480 cells.
(§5) The assays were carried out according to the following protocol, which is described as an example for the MV4-11 cells:
(§6) Ten thousand MV4-11 cells were inoculated into each well of a 96-well microplate (manufactured by Corning Corp.) using Iscove's MDM medium (culture medium) containing 10% fetal calf serum (FCS). The same day, a dimethyl sulfoxide (DMSO) solution of each test compound prepared in a concentration of 10 mmol/L was further diluted with DMSO to the desired concentrations (0.1, 0.5, 1, 2.5, 5 and 10 micromol/L), and the diluted solution was added to each well. The individual wells were further cultured in 5% carbon dioxide at 37° C. for 72 hours. […] Briefly, 10 μl MTS (3-(4,5-Dimethyl-2-thiazolyl)-5-(carboxymethoxyphenyl)-2-(4-sulfophenyl)-2H-tetrazolium was added to each well, and culturing was performed in 5% carbon dioxide at 37° C. for 2 hours. After this incubation and using a microplate spectrophotometer (Synergy 2 multi-mode microplate reader (BioTek)), the absorbance of each well was measured at 490 nm. The value for cells not incubated with a test compound was designated as 100%. By comparing these values with the absorbance difference obtained at the well in which each test compound was added, the cell viability (% viability) after treatment with the test compound was calculated.

HepG2 cells = experiment: Growth inhibition, MTS assay, HepG2; type: cell-based, Human; conditions: MTS cell viability, read-out: HepG2 ED50
Description: as §4, §5, §6

HEL92 cells = experiment: Growth inhibition, MTS assay, HEL92; type: cell-based, Human; conditions: MTS cell viability, read-out: HEL92 ED50
Description: as §4, §5, §6

Pim-1 = Pim-1 (Homo sapiens (Human), UniProt P11309); experiment: ADP-Glo Kinase Assay, Pim-1; type: biochemical; conditions: 1 μM compound; for inhibition at 1 µM: read-out: Pim-1 % INH (1 μM)
Method: as §1, §2, §3

Pim-2 = Pim-2 (Homo sapiens (Human), UniProt Q9P1W9); experiment: ADP-Glo Kinase Assay, Pim-2; type: biochemical; conditions: 1 μM compound; for inhibition at 1 µM: read-out: Pim-2 % INH (1 μM)
Method: as §1, §2, §3

SW-480 cells = experiment: Growth inhibition, MTS assay, SW-480; type: cell-based, Human; conditions: 72 hours, MTS cell viability, read-out: SW-480 ED50
Description: as §4, §5, §6

FLT3wt, sequence (P36888 27-993): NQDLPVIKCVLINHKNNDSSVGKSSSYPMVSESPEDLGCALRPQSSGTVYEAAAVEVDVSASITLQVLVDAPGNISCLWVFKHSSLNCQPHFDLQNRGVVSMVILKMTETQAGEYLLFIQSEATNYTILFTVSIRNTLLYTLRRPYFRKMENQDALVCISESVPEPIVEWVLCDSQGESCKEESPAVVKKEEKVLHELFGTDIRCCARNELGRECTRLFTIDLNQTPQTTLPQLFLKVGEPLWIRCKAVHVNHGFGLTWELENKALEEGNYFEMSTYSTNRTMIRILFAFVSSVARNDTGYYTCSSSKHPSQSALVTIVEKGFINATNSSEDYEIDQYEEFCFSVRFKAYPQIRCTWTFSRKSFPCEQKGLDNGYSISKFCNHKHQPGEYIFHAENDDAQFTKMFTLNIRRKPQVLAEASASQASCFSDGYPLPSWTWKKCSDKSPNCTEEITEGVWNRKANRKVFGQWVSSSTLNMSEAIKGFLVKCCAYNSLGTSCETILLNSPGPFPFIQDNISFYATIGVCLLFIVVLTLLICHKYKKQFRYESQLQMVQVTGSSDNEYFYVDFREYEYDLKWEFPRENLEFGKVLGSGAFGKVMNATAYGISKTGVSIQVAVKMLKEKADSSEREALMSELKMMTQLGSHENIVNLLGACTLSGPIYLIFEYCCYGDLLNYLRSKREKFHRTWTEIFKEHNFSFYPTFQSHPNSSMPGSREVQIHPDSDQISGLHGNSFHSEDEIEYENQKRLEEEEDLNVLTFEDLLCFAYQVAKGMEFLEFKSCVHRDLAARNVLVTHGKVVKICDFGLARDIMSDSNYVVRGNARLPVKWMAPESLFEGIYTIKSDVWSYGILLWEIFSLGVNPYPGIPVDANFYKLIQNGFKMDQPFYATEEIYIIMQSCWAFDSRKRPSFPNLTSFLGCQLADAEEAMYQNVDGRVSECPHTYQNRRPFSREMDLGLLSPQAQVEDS
Pim-1, sequence (P11309 whole entry): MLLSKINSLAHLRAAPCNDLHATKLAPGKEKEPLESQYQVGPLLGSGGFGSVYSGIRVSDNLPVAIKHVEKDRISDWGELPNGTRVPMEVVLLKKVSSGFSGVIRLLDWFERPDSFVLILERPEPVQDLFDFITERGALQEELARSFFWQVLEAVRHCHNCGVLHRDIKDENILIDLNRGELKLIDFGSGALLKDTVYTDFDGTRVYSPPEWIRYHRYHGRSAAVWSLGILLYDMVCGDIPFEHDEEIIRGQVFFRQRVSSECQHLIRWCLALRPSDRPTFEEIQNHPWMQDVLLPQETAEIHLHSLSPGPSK
Pim-2, sequence (Q9P1W9 whole entry): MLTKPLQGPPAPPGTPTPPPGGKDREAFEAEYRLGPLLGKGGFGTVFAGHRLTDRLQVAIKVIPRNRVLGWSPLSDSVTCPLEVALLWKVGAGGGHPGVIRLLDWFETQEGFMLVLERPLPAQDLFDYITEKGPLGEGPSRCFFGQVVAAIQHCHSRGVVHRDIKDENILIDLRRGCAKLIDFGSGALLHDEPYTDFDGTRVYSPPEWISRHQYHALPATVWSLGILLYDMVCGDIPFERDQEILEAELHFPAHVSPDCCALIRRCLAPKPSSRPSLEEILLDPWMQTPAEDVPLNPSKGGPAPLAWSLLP

inhibition at 1 µM (DYRK1)	inhibition at 1 µM (CDK2/E)	inhibition at 1 µM (FLT3wt)	inhibition at 1 µM (Pim-3)	IC50 (MV4-11 cells; Homo sapiens, MV4-11, 72 h)	IC50 (HepG2 cells; Homo sapiens, HepG2, 72 h)	inhibition at 1 µM (Pim-1)	inhibition at 1 µM (Pim-2)	DYRK1A % INH (1 μM) (DYRK1)	CDK2/E % INH (1 μM) (CDK2/E)	Flt3wt % INH (1 μM) (FLT3wt)	Pim-3 % INH (1 μM) (Pim-3)	IC50 (MV4-11 cells; 72 hours)	IC50 (HepG2 cells; 72 hours)	Pim-1 % INH (1 μM) (Pim-1)	Pim-2 % INH (1 μM) (Pim-2)	IC50 (SW-480 cells)	IC50 (SW-480 cells; Homo sapiens, SW480)	SMILES	IC50 (HEL92 cells; Homo sapiens, 72 h)	IC50 (HEL92 cells; 72 hours)
52%	6%	15%	82%	1100 nM	1900 nM	> 95%	51%	–	–	–	–	–	–	–	–	–	–	CC(C)n1c(NC2CCNC2)nc2c([N+](=O)[O-])c(Br)c(Br)cc21 (stereo not shown) [Example 1BA]	6900 nM	–
66%	21%	39%	48%	900 nM	3600 nM	> 95%	21%	–	–	–	–	–	–	–	–	–	–	CC(O)Cn1c(N2CCNCC2)nc2c([N+](=O)[O-])c(Br)c(Br)cc21 (stereo not shown) [Example 1BS]	4600 nM	–
–	–	–	–	–	–	–	–	–	–	–	–	5100 nM	4300 nM	–	–	5600 nM	–	CCn1c(N2CCC(N)CC2)nc2c([N+](=O)[O-])c(Br)c(Br)cc21 [Example 1I]	–	–
22%	26%	23%	56%	500 nM	1200 nM	70%	16%	–	–	–	–	–	–	–	–	–	–	CC(C)n1c(NC2CCCNC2)nc2c(C#N)c(Br)c(Br)cc21 (stereo not shown) [Example 1BT]	5700 nM	–
–	–	–	–	–	–	–	–	80%	11%	39%	91%	5100 nM	2900 nM	>95%	82%	–	–	CC(C)n1c(N2CCC[C@H](N)C2)nc2c(C#N)c(Br)c(Br)cc21 [Example 1BV]	5300 nM	–
43%	11%	49%	88%	500 nM	1800 nM	> 95%	36%	–	–	–	–	–	–	–	–	–	–	CC(C)n1c(N2CCN[C@H](C)C2)nc2c([N+](=O)[O-])c(Br)c(Br)cc21 [Example 22AA, 5,6-dibromo-2-[(3R)-3-methylpiperazin-1-yl]-4-nitro-1-(propan-2-yl)-1H-1,3-benzodiazole]	1200 nM	–

The next lines start with the compound.

SMILES	inhibition at 1 µM (DYRK1)	inhibition at 1 µM (CDK2/E)	inhibition at 1 µM (FLT3wt)	inhibition at 1 µM (Pim-3)	IC50 (MV4-11 cells; Homo sapiens, MV4-11, 72 h)	IC50 (HepG2 cells; Homo sapiens, HepG2, 72 h)	inhibition at 1 µM (Pim-1)	inhibition at 1 µM (Pim-2)	DYRK1A % INH (1 μM) (DYRK1)	CDK2/E % INH (1 μM) (CDK2/E)	Flt3wt % INH (1 μM) (FLT3wt)	Pim-3 % INH (1 μM) (Pim-3)	IC50 (MV4-11 cells; 72 hours)	IC50 (HepG2 cells; 72 hours)	Pim-1 % INH (1 μM) (Pim-1)	Pim-2 % INH (1 μM) (Pim-2)	IC50 (SW-480 cells)	IC50 (SW-480 cells; Homo sapiens, SW480)	IC50 (HEL92 cells; Homo sapiens, 72 h)	IC50 (HEL92 cells; 72 hours)
O=[N+]([O-])c1c(Br)c(Br)cc2c1nc(N1CCNCC1)n2CC1CCC1 [Example 2F, 5,6-dibromo-1-(cyclobutylmethyl)-4-nitro-2-(piperazin-1-yl)-1H-1,3-benzodiazole hydrochloride]	> 95%	15%	78%	89%	300 nM	1800 nM	> 95%	70%	–	–	–	–	–	–	–	–	–	–	2100 nM	–
O=[N+]([O-])c1c(Br)c(Br)cc2c1nc(N[C@@H]1CCCNC1)n2CC1CC1 [Example 1CH]	–	–	–	–	–	–	–	–	14%	9%	17%	32%	5000 nM	2200 nM	82%	10%	–	–	–	5700 nM
CCn1c(NCC2CCN(CCN(C)C)C2)nc2c([N+](=O)[O-])c(Br)c(Br)cc21 (stereo not shown) [Example 22O, 5,6-dibromo-N-({1-[2-(dimethylamino)ethyl]pyrrolidin-3-yl}methyl)-1-ethyl-4-nitro-1H-1,3-benzodiazol-2-amine]	–	–	–	–	2800 nM	1400 nM	–	–	–	–	–	–	–	–	–	–	–	1400 nM	2500 nM	–
O=[N+]([O-])c1c(Br)c(Br)cc2c1nc(N[C@H]1CCNC1)n2CC1CC1 [Example 1CI]	–	–	–	–	–	–	–	–	57%	10%	19%	75%	1600 nM	1400 nM	>95%	64%	–	–	–	6100 nM
O=[N+]([O-])c1c(Br)c(Br)cc2[nH]c(N3CCNCC3)nc12 [Example 1E]	–	–	–	–	3300 nM	6800 nM	–	–	–	–	–	–	–	–	–	–	–	8100 nM	–	–
